Test results: article PMC6917776, “Discovery of a chemical probe for PRDM9” (Nature Communications, 2019)
Like-named read-outs stand apart in the source and are kept apart here.

What was measured:
Assay in all cases: Methyltransferase selectivity assay (SPA)
Format in all cases: biochemical
GLP = target: T1, GLP (Homo sapiens, UniProt Q9H9B1); conditions: EHMT1, Exp1, Exp2
T1 construct: purchased Structural Genomics Consortium (SGC Toronto) in-house methyltransferase panel
T1 sequence (Q9H9B1 1-1298): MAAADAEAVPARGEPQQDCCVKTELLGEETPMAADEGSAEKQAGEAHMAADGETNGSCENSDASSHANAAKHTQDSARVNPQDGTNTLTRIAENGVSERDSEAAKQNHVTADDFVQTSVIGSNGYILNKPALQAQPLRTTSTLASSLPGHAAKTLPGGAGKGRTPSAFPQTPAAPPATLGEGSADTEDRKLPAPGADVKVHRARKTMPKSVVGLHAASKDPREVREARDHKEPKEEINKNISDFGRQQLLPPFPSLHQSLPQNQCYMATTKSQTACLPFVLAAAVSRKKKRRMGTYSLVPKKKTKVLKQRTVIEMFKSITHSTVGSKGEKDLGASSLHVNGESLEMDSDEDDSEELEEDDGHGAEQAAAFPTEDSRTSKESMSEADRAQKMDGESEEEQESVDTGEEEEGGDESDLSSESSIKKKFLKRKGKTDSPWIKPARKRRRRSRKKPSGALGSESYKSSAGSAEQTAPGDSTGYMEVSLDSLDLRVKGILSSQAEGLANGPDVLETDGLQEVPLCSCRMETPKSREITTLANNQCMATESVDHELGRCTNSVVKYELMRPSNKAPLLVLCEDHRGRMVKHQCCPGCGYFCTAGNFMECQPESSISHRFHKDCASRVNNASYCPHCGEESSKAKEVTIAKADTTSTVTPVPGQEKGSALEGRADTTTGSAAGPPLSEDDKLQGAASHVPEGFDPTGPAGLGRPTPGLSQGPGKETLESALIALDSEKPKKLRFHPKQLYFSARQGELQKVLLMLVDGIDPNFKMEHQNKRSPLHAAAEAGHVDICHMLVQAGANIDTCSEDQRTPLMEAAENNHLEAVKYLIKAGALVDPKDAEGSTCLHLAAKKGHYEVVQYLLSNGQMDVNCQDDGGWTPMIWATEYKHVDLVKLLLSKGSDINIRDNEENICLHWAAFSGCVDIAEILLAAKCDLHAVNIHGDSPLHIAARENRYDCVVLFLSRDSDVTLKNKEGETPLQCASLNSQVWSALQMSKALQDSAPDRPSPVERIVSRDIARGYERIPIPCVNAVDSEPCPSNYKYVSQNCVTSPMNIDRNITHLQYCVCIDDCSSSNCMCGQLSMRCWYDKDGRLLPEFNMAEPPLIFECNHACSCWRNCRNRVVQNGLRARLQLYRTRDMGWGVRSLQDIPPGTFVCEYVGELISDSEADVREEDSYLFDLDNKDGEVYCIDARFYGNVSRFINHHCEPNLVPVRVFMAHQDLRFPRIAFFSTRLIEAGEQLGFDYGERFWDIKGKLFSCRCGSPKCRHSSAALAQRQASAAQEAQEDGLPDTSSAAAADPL
Method: (§1) Selectivity against methyltransferases were determined as described previously. Details of the assays are described in the supplementary methods.
(§2) Methyltransferase selectivity assay1
(§3) The effect of chemical probes and negative controls on the methyltransferase activities of protein, DNA and RNA methyltransferases was tested by radiometric assays using 3H-SAM. For proteins such as MLL1 trimeric, MLL3 pentameric, EZH1 (PRC2) pentameric, and EZH2 (PRC2) trimeric complexes, as well as G9a, GLP, SUV39H1, SUV39H2, SUV420H1, SUV420H2, SETD2, SETD8, SETDB1, SETD7, PRMT1, PRMT3, PRMT4, PRMT5/ MEP50 complex, PRMT6, PRMT7, PRMT8, PRMT9, PRDM9, SMYD2, SMYD3, DNMT1, and BCDIN3D the incorporation of a tritium-labeled methyl group into biotinylated substrate was monitored using scintillation proximity assay (SPA). Briefly, a 10 µL reaction containing 3H-SAM and substrate at concentrations close to the apparent Km values for each enzyme (balanced conditions) was prepared. The reactions were quenched with 10 µL of 7.5 M guanidine hydrochloride; 180 µL of 20 mM Tris buffer (pH 8.0) were added, and the mixture was transferred to a 96-well FlashPlate and incubated for 1 h. The counts per minute (CPM) was measured on a TopCount plate reader. The CPM in the absence of compound or enzyme was defined as 100% activity and background (0%), respectively, for each dataset. […]

MLL3 pentameric complex = target: T2, MLL3 pentameric complex (Homo sapiens, UniProt Q8NEZ4)
T2 construct: purchased Structural Genomics Consortium (SGC Toronto) in-house methyltransferase panel
Method: as §1, §2, §3

PRMT3 = target: T3, PRMT3 (Homo sapiens, UniProt O60678)
T3 construct: purchased Structural Genomics Consortium (SGC Toronto) in-house methyltransferase panel
Method: as §1, §2, §3

PRMT6 = target: T4, PRMT6 (Homo sapiens, UniProt Q96LA8)
T4 construct: purchased Structural Genomics Consortium (SGC Toronto) in-house methyltransferase panel
Method: as §1, §2, §3

SETD7 = target: T5, SETD7 (Homo sapiens, UniProt Q8WTS6)
T5 construct: purchased Structural Genomics Consortium (SGC Toronto) in-house methyltransferase panel
T5 sequence (Q8WTS6 1-366): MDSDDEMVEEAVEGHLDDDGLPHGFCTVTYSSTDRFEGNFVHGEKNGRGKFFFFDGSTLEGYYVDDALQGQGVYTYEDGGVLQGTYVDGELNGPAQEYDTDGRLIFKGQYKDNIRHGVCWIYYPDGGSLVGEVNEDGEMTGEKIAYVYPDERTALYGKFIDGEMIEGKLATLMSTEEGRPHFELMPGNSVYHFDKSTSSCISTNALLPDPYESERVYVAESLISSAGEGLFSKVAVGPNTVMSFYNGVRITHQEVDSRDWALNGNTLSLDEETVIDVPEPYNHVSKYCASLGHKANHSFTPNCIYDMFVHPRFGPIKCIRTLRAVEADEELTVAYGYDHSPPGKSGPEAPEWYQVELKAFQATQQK
Method: as §1, §2, §3

SUV39H2 = target: T6, SUV39H2 (Homo sapiens, UniProt Q9H5I1)
T6 construct: purchased Structural Genomics Consortium (SGC Toronto) in-house methyltransferase panel
Method: as §1, §2, §3

SUV420H1 = target: T7, SUV420H1 (Homo sapiens, UniProt Q4FZB7)
T7 construct: purchased Structural Genomics Consortium (SGC Toronto) in-house methyltransferase panel
Method: as §1, §2, §3

[1] = 10µM compound, Exp1, Exp2, 10 µM
[2] = 1µM compound, Exp1, Exp2, read-out: Activity %
[3] = 10µM compound, Exp1, Exp2, read-out: Activity %

T6 sequence (Q9H5I1 whole entry): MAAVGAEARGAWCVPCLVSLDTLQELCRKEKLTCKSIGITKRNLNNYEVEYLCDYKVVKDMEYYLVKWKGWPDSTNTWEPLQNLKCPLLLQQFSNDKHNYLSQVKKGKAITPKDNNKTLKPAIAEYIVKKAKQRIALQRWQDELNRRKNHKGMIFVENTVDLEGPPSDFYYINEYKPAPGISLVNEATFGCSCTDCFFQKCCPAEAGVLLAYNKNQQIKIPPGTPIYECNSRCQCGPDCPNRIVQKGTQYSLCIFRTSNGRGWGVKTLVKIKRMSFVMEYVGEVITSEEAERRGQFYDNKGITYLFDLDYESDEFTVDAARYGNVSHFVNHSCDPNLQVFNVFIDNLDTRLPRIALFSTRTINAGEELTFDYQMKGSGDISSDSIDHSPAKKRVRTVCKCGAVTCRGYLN
T3 sequence (O60678 whole entry): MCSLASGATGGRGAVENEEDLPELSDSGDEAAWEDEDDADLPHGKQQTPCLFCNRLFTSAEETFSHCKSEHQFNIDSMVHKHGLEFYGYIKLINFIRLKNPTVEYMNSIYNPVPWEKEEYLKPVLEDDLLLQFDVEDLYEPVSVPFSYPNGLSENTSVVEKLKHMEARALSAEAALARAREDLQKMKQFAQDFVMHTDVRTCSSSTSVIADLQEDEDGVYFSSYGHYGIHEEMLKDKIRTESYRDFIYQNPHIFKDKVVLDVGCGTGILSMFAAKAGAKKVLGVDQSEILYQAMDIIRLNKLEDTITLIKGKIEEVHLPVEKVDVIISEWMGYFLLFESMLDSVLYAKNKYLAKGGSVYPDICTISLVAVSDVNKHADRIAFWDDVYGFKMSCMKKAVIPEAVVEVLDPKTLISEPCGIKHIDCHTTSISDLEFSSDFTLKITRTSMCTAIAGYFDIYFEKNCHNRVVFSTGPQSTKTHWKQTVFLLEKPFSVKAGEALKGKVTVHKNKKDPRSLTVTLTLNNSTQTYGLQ
T7 sequence (Q4FZB7 whole entry): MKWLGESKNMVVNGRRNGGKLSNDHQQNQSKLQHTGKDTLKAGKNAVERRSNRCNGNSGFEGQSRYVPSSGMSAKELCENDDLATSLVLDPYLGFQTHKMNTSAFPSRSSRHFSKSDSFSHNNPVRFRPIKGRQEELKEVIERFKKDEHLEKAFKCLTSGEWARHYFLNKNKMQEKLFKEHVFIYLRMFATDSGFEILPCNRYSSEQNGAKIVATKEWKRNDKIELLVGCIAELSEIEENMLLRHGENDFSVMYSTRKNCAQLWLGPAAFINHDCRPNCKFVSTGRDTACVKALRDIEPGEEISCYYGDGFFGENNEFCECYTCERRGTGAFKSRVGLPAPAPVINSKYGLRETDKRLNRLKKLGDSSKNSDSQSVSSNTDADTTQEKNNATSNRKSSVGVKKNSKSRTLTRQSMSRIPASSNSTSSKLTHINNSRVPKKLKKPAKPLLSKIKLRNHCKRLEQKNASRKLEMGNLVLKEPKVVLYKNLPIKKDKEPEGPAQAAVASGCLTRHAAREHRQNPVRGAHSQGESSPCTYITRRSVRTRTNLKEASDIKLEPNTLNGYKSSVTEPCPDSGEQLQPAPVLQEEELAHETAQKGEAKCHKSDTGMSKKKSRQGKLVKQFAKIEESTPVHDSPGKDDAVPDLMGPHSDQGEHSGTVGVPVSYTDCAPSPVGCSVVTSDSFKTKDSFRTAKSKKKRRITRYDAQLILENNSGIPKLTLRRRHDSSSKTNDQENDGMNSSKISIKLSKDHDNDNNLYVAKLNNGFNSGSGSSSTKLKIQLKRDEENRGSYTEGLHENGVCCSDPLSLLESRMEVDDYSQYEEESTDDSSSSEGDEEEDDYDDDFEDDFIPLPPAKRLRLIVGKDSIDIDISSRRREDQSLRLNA
T4 sequence (Q96LA8 whole entry): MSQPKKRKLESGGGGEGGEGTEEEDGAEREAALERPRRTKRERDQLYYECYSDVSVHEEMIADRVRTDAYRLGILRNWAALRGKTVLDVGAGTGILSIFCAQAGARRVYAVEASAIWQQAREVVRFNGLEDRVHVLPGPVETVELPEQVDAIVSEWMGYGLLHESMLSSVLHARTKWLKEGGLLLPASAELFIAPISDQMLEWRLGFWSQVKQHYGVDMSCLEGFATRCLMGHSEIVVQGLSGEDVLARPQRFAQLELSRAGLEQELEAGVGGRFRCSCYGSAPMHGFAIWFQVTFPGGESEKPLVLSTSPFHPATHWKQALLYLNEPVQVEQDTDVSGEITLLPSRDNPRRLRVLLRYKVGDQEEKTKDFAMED

SMILES: COc1cc(OC)cc(-c2noc(N3CCN(C)C4(CCN(c5ccccc5)CC4)C3)n2)c1 [MRK-740 -NC]
- activity at 1 µM (GLP; 1µM compound): 100%
- activity at 10 µM (GLP; 10µM compound): 95%
- Activity % (GLP; 10µM compound, 10 µM): 98%
- activity at 1 µM (MLL3 pentameric complex; 1µM compound, Exp1, Exp2): 108%
- Activity % (MLL3 pentameric complex; 1µM compound, Exp1, Exp2, 1 µM): 105%
- activity at 10 µM (MLL3 pentameric complex; 10µM compound, Exp1, Exp2): 107%
- Activity % (MLL3 pentameric complex; [1]): 95%
- activity at 1 µM (PRMT3; 1µM compound, Exp1, Exp2): 105%
- Activity % (PRMT3; 1µM compound, Exp1, Exp2, 1 µM): 106%
- activity at 10 µM (PRMT3; 10µM compound, Exp1, Exp2): 104%
- Activity % (PRMT3; [1]): 97%
- activity at 1 µM (PRMT6; 1µM compound, Exp1, Exp2): 98%
- Activity % (PRMT6; 1µM compound, Exp1, Exp2, 1 µM): 97%
- activity at 10 µM (PRMT6; 10µM compound, Exp1, Exp2): 96%
- Activity % (PRMT6; [1]): 95%
- activity at 1 µM (SETD7; 1µM compound, Exp1, Exp2): 96%
- Activity % (SETD7; 1µM compound, Exp1, Exp2, 1 µM): 95%
- activity at 10 µM (SETD7; 10µM compound, Exp1, Exp2): 94%
- Activity % (SETD7; [1]): 88%
- activity at 1 µM (SUV39H2; 1µM compound, Exp1, Exp2): 93%
- activity at 10 µM (SUV39H2; 10µM compound, Exp1, Exp2): 86%
- Activity % (SUV39H2; [1]): 96%
- activity at 1 µM (SUV420H1; 1µM compound, Exp1, Exp2): 103%
- Activity % (SUV420H1; 1µM compound, Exp1, Exp2, 1 µM): 105%
- activity at 10 µM (SUV420H1; 10µM compound, Exp1, Exp2): 99%
- Activity % (SUV420H1; [1]): 95%

SMILES: COc1cc(OC)cc(-c2noc(N3CCN(C)C4(CCN(c5ccnc(C)c5)CC4)C3)n2)c1 [MRK-740]
- Activity % (GLP; 1µM compound, 1 µM): 100%
- activity at 1 µM (GLP; 1µM compound, read-out: Activity %): 93%
- Activity % (GLP; 10µM compound, 10 µM): 84%
- activity at 10 µM (GLP; 10µM compound, read-out: Activity %): 94%
- Activity % (MLL3 pentameric complex; 1µM compound, Exp1, Exp2, 1 µM): 95%
- activity at 1 µM (MLL3 pentameric complex; [2]): 89%
- Activity % (MLL3 pentameric complex; [1]): 86%
- activity at 10 µM (MLL3 pentameric complex; [3]): 94%
- Activity % (PRMT3; 1µM compound, Exp1, Exp2, 1 µM): 88%
- activity at 1 µM (PRMT3; [2]): 90%
- Activity % (PRMT3; [1]): 87%
- activity at 10 µM (PRMT3; [3]): 92%
- Activity % (PRMT6; 1µM compound, Exp1, Exp2, 1 µM): 94%
- activity at 1 µM (PRMT6; [2]): 98%
- Activity % (PRMT6; [1]): 93%
- activity at 10 µM (PRMT6; [3]): 98%
- Activity % (SETD7; 1µM compound, Exp1, Exp2, 1 µM): 92%
- activity at 1 µM (SETD7; [2]): 93%
- Activity % (SETD7; [1]): 87%
- activity at 10 µM (SETD7; [3]): 90%
- Activity % (SUV39H2; 1µM compound, Exp1, Exp2, 1 µM): 89%
- activity at 1 µM (SUV39H2; [2]): 92%
- Activity % (SUV39H2; [1]): 90%
- activity at 10 µM (SUV39H2; [3]): 92%
- Activity % (SUV420H1; 1µM compound, Exp1, Exp2, 1 µM): 102%
- activity at 1 µM (SUV420H1; [2]): 101%
- Activity % (SUV420H1; [1]): 103%
- activity at 10 µM (SUV420H1; [3]): 86%
